What was measured:
HDAC1 = HDAC1 (Homo sapiens, UniProt Q13547); test: In vitro biochemical HDAC enzyme assay; conditions: 24 hours pre-incubation; mean, n = 4
Description: (§1) In vitro biochemical assays were performed as described previously. Specifically, drugs were dissolved and diluted in assay buffer (50 mM HEPES, pH 7.4, 100 mM KCl, 0.001% Tween-20, 0.05% BSA, and 20 μM Tris (2-carboxyethyl)phosphine) to 6-fold the final concentration. HDAC enzymes (BPS Biosciences) were diluted to 1.5-fold of the final concentration in assay buffer and pre-incubated with ACY-957 for 24 hours before the addition of the substrate. The amount of substrate (acetyl-lysine tripeptide substrate for HDAC1, HDAC2, HDAC3, and HDAC6 or trifluoroacetyl-lysine tripeptide for HDAC4, HDAC5, HDAC7, HDAC8, and HDAC9) used for each enzyme was equal to the Michaelis constant (Km), as determined by a titration curve. Substrate was diluted in assay buffer to 6-fold the final concentration with 0.3 μM sequencing grade trypsin (Sigma-Aldrich). The substrate/trypsin mix was added to the enzyme/compound mix and the plate was shaken for 5 seconds and then placed into a SpectraMax M5 microtiter plate reader (Molecular Devices). The enzymatic reaction was monitored over 30 minutes for release of […] after deacetylation of the lysine side chain in the peptide substrate, and the linear rate of the reaction was calculated.
(§2) ACY-957 was tested against each individual HDAC in an in vitro biochemical assay as previously described. Aminobenzamides have slow association rate constants, therefore a prolonged pre-incubation time of 24 hours is required to reach equilibrium.

HDAC9 = system: T1, HDAC9; test: In vitro biochemical HDAC enzyme assay; conditions: at concentrations as high as 20 μM
T1 construct: purchased BPS Biosciences
Description: as §1, §2

HDAC6 = system: T2, HDAC6; test: In vitro biochemical HDAC enzyme assay; conditions: at concentrations as high as 20 μM
T2 construct: purchased BPS Biosciences
Description: as §1, §2

HDAC3 = HDAC3 (Homo sapiens, UniProt O15379); test: In vitro biochemical HDAC enzyme assay
Description: as §1, §2

HDAC8 = system: T3, HDAC8; test: In vitro biochemical HDAC enzyme assay; conditions: at concentrations as high as 20 μM
T3 construct: purchased BPS Biosciences
Description: as §1, §2

HDAC7 = system: T4, HDAC7; test: In vitro biochemical HDAC enzyme assay; conditions: at concentrations as high as 20 μM
T4 construct: purchased BPS Biosciences
Description: as §1, §2

HDAC5 = system: T5, HDAC5; test: In vitro biochemical HDAC enzyme assay; conditions: at concentrations as high as 20 μM
T5 construct: purchased BPS Biosciences
Description: as §1, §2

HDAC4 = system: T6, HDAC4; test: In vitro biochemical HDAC enzyme assay; conditions: at concentrations as high as 20 μM
T6 construct: purchased BPS Biosciences
Description: as §1, §2

HBG mRNA = HBG mRNA (%) by QPCR in differentiating BM cells (CS1, CS2); assay type: cell-based, human
Description: CD34+ cells isolated from human bone marrow of healthy normal donors (Lonza, AllCells, or StemCell Technologies), referred to as BM cells throughout this work, were cultured using two distinct 2-phase culture systems. These systems have been described previously and are referred to as Culture System 1 (CS1) and Culture System 2 (CS2) throughout this work. CS1 expansion media is StemSpan SFEM (StemCell Technologies) supplemented with CC100 (StemCell Technologies), 100 U/mL penicillin and 100 μg/mL streptomycin. CC100 is a mix of Flt-3 ligand (FLT3LG), KIT ligand (KITLG), interleukin-3 (IL3), and interleukin-6 (IL6). CS1 differentiation media is StemSpan SFEM supplemented with 1 U/ml erythropoietin (EPO), 5 ng/mL IL3, 20 ng/mL KITLG, 2 μM dexamethasone, 1 μM beta-estradiol, 100 U/mL penicillin and 100 μg/mL streptomycin. CS2 expansion media is StemSpan SFEM supplemented with 1% glutamine, 40 μg/mL lipids (Sigma), 100 ng/mL KITLG, 10 ng/mL IL3, and 0.5 U/mL EPO. CS2 differentiation media is same as CS2 expansion media, except 3 U/mL EPO.
Globin mRNA was detected using quantitative real time PCR (QPCR). Total RNA was isolated using RNeasy Micro Kit (Qiagen) with on-column DNase digestion, converted into cDNA using the High Capacity RNA-to-cDNA Kit (Life Technologies), diluted 5-fold with water, and 1 μL used as a template for QPCR. The percent of each β-like globin transcript was determined using the absolute standard curve method. Briefly, DNA corresponding to the full length transcript for each globin isoform was cloned into […] plasmid (GenScript, Piscataway NJ). Each plasmid was validated against each QPCR probe to ensure specificity. Plasmids were pooled at equal molar concentration and a dilution series spanning 8-logs was utilized as the standard curve. Throughout this work, ‘HBG mRNA (%)’ and ‘percent HBG mRNA’ refers to the abundance of HBG mRNA expressed relative to the sum of the abundances of all β-like globin transcripts, i.e. [HBG/(HBB+HBD+HBG+HBE)]*100. In cases where the transcript of interest was compared against the housekeeping gene ACTB, the comparative Ct ([…]) method was utilized. Probes used for QPCR: HBB (Hs00747223_g1), HBD (Hs00426283_m1), HBG (Hs00361131_g1, detects both HBG1 and HBG2), HBE (Hs00362215_g1), GATA1 (Hs01085823_m1), GATA2 (Hs00231119_m1), KLF1 (Hs00610592_m1), MYB (Hs00920556_m1), SOX6 (Hs00264525_m1), BCL11A (Hs01093197_m1), and ACTB (Hs99999903_m1).
To evaluate the ability of ACY-957 to activate HBG, we utilized two distinct 2-phase culture systems, referred to as CS1 [24] and CS2 [21], to derive erythroid progenitors and erythroblasts from CD34+ human bone marrow cells (BM cells). […]

Sequence of HDAC3 (O15379 whole entry): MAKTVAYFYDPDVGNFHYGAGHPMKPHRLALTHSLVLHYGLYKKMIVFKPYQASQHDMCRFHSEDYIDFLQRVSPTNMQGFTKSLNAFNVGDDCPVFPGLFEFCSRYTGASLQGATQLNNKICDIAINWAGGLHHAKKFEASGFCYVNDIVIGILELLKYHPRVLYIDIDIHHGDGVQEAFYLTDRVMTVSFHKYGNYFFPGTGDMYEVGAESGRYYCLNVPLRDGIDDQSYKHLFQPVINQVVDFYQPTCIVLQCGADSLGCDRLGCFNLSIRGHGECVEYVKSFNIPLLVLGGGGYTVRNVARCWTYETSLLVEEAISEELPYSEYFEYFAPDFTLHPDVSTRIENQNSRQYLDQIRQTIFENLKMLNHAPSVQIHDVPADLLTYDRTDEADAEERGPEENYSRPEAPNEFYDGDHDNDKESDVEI
Sequence of HDAC3 (Q9Y618 395-489 partner limits assumed): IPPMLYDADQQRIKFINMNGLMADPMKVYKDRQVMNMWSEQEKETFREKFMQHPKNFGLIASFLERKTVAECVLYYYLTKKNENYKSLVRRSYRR
Sequence of HDAC1 (Q13547 whole entry): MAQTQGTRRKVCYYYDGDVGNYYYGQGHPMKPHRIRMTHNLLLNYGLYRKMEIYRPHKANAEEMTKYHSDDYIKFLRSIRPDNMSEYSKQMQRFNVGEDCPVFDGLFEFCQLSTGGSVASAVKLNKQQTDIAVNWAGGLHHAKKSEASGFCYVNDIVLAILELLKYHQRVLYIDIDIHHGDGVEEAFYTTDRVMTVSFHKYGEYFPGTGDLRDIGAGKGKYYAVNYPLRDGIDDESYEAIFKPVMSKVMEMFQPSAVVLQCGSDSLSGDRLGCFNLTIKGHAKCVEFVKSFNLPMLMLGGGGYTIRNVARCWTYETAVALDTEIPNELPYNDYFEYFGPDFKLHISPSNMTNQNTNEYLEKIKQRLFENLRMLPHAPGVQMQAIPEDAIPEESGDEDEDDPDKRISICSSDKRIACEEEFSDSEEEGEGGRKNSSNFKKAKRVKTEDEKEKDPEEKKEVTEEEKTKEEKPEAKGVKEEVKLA

Question: With Nc1ccc(-c2cccs2)cc1NC(=O)c1ccc2nc(N3CCNCC3)ccc2c1 [ACY-957] as the molecule, how does the IC50 (HDAC1) read?
Answer: 0.007 µM

Question: And the “inhibition of HDAC9” value (HDAC9)?
Answer: no inhibition

Question: And the “inhibition of HDAC6” value (HDAC6)?
Answer: no inhibition

Question: And the IC50 (HDAC3; 24 hours pre-incubation, mean, n = 4)?
Answer: 1.3 µM

Question: And the “selectivity for HDAC1/2 over HDAC3” value (HDAC3; biochemical assay)?
Answer: approximately 100 fold

Question: And the “inhibition of HDAC8” value (HDAC8)?
Answer: no inhibition

Question: And the “inhibition of HDAC7” value (HDAC7)?
Answer: no inhibition

Question: What about the “inhibition of HDAC5” value (HDAC5) of the same molecule?
Answer: no inhibition

Question: What about the “inhibition of HDAC4” value (HDAC4) of the same molecule?
Answer: no inhibition

Question: What about the “HBG mRNA (%)” value (HBG mRNA; CS1, day 5, 1 μM) of the same molecule?
Answer: 35%

Question: What about the “each β-like globin mRNA relative to ACTB” value (HBG mRNA; CS1 and CS2, 1 μM) of the same molecule?
Answer: significantly increased levels of HBE and HBG mRNA and decreased levels of HBD and HBB mRNA

Question: And the “increase of HBG level over vehicle treated controls” value (HBG mRNA; CS1 and CS2, day 5, 1 μM)?
Answer: approximately 3.5 fold

Question: And the “HBG mRNA (%)” value (HBG mRNA; CS2, day 5, 1 μM)?
Answer: 24%

Reference: PMC4830539, “Chemical Inhibition of Histone Deacetylases 1 and 2 Induces Fetal Hemoglobin through Activation of GATA2” (PLoS ONE, 2016)
